The values that follow come from paper PMC9399588, “Effect of fluconazole on the pharmacokinetics of a single dose of fedratinib in healthy adults” (Cancer Chemotherapy and Pharmacology, 2022).

On the set-up of data set [1]: method as in PMID 32248324. The following applies: cited from earlier work.
The conditions of data set [2]: cited from earlier work.
Details of data set [3]: method as in PMID 34019108. Particulars: healthy adults; cited from earlier work.
In a further data set the test system is CYP3A4 (liver). Also on record: method as in PMID 32886148. The following applies: after first dose of 400 mg once-daily fedratinib, healthy participants; cited from earlier work.
Data set [4] in a line: Phase 1 fixed-sequence drug-drug interaction study: plasma pharmacokinetics of single-dose fedratinib with and without fluconazole. The following applies: for Vd/F: read-out: Vz/F, geometric mean (geometric CV%); for half-life: read-out: t1/2 (terminal elimination), geometric mean (geometric CV%) (converted). The format is in vivo, human. From the text:
This was an open-label Phase 1 study to evaluate the effect of multiple doses of fluconazole on the PK, safety, and tolerability of a single dose of fedratinib in healthy adult participants (NCT04702464). Healthy men and women aged 18–65 years with body mass index (BMI) ≥ 18 and ≤ 33 kg/m^2 at screening were enrolled at one site in the USA. Participants were confirmed to be healthy based on medical history, physical examination, clinical laboratory test results, vital signs, and 12-lead electrocardiogram (ECG) at screening and check-in (day − 1). Aspartate aminotransferase, alanine aminotransferase, and total bilirubin must have been at or below the upper limit of the reference range on or before check-in (day − 1). Other clinical parameters and laboratory results were either within normal range or deemed not clinically significant by the investigator. Women of childbearing potential were required to have a negative pregnancy test result and to use birth control.
This was a non-randomized, fixed-sequence, open-label study consisting of a screening phase, treatment phase (including baseline), and follow-up telephone call (Fig. 1). The fixed-sequence crossover design of this study was selected to remove intersubject variability from comparison between treatments. Healthy participants were chosen to mitigate the potential confounding effects of disease state or other concomitant medications likely to be present in a population of patients with myelofibrosis.
Participants resided at the clinical site from day − 1 to day 27. A single oral dose of fedratinib 100 mg was administered under fasted conditions on day 1. Participants received fluconazole 400 mg on day 10 and fluconazole 200 mg once daily on days 11–23. On day 18, participants received a single oral dose of fedratinib 100 mg, under fasted conditions, with fluconazole 200 mg. No food or beverages (except water) were allowed for at least 4 h after dosing; water was allowed as desired except for 1 h before and 1 h after each dose. Participants received ondansetron 8 mg by mouth approximately 1 h before each fedratinib administration to reduce the potential for fedratinib-related nausea and vomiting, with the option of a subsequent oral dose(s) of ondansetron as necessary. Fluconazole is not expected to have a clinically meaningful impact on the PK of ondansetron as ondansetron is metabolized by multiple enzymes including CYP1A1/2, CYP3A4, and CYP2D6 [28]. […] Participants were discharged from the clinical site on day 27 and received a follow-up telephone call 4 days (± 2 days) after discharge. In the event that participants discontinued the study for any reason, an early termination (ET) visit was performed. Only safety assessments scheduled for the day of discharge were performed at the ET visit. Participants who discontinued the study also received a follow-up telephone call 4 days (± 2 days) after discharge. Participants who discontinued the study due to inclement weather returned to the clinic to complete the ET visit at a later date.
On days 1 and 18, blood samples for determination of fedratinib plasma concentrations were collected before each dose and 0.5, 1, 1.5, 2, 3, 4, 6, 8, 12, 24, 48, 72, 120, 168, and 216 h post-dose. Plasma fedratinib concentrations were measured using a validated liquid chromatography–tandem mass spectrometry assay with a lower limit of quantification (LLOQ) of 1.00 ng/mL [19].
Plasma PK parameters were calculated using noncompartmental methods. The PK parameters determined for fedratinib were maximum observed plasma concentration (Cmax), time to Cmax (Tmax), AUC from time 0 to the time of the last quantifiable concentration (AUC0–t), AUC from time 0 to infinity (AUC0–∞), terminal elimination t1/2, apparent total plasma clearance (CL/F), and apparent total volume of distribution during the terminal phase (Vz/F). […]

Data set [5] in a line: Safety and tolerability assessment (adverse event monitoring) in the Phase 1 study. It is filed as in vivo, human. The method, then: Safety assessments included adverse event (AE) monitoring, review of concomitant medications and procedures, physical examinations, vital signs measurements, 12-lead ECGs, and clinical laboratory safety tests. All AEs were recorded from the time of informed consent until study completion, and up to 30 days after the last dose of fluconazole if reported to the investigator.

Another data set concerns CYP2C19 (liver). Also on record: method as in PMID 32886148. The following applies: after first dose of 400 mg once-daily fedratinib, healthy participants; cited from earlier work.
The test system of another data set is myelofibrosis. Further details: method as in PMID 34331348. The following applies: double-blind Phase 3, NCT01437787; cited from earlier work.
On the set-up of data set [6]: method as in PMID 32748109. The following applies: healthy adult men, oral dose of [14C]-fedratinib 200 mg; cited from earlier work.
The conditions of data set [7]: in vivo; cited from earlier work.
The subject of a further data set is CYP3A4. Further details: method as in PMID 32886148. The following applies: 0.1 μM fedratinib, different hepatocyte preparations; cited from earlier work.
On the set-up of data set [8]: method as in PMID 32886148. Particulars: PBPK simulations; cited from earlier work.
On the set-up of data set [9]: method as in PMID 12867217. The following applies: cited from earlier work.
On the set-up of data set [10]: method as in PMID 31324935. Particulars: cited from earlier work.
[11] abbreviates: healthy men, single dose fedratinib 300 mg with ketoconazole vs alone.
Setting [12] is: compared with fedratinib alone, single oral dose 100 mg.
Setting [13] is: fedratinib 100 mg + fluconazole 200 mg once daily (test) vs fedratinib 100 mg (reference).

“And” between values parts separate entries of the source, which are not always exact repeats. Equal entries are not always repeated. Where two headings read alike, the source gives them in different places.

Take `Cc1cnc(Nc2ccc(OCCN3CCCC3)cc2)nc1Nc1cccc(S(=O)(=O)NC(C)(C)C)c1` [fedratinib]: the “Effect of ketoconazole coadministration on fedratinib Tmax” value in data set [1] is given as “no effect on Tmax”. In data set [1] (setting [11]), the “Increase in fedratinib AUC0–t by ketoconazole” value is reported as 3.20 fold. The “Increase in fedratinib Cmax by ketoconazole” value in [1] (setting [11]) is listed as 1.93 fold. The “Effective t1/2” value is recorded as “around 40 h” in [2]; ~ 40 h in data set [2] (healthy participants and patients with myelofibrosis). Besides, the “Terminal elimination half-life (t1/2)” value in [2] is “around 114 h”. Also, the “Effect of CYP3A4 inducers rifampin and efavirenz on fedratinib exposure” value in data set [3] was “decrease fedratinib exposure”. For the same compound, the results for the “Mean fraction of metabolism or excretion in relation to systemic clearance” value in the data set on CYP3A4 (liver) and in the data set on CYP2C19 (liver) were 64% and 16%, respectively. Also, the “Tmax median difference between fedratinib with fluconazole and fedratinib alone” value in data set [4] (Hodges–Lehmann estimate, 90% CI 0.00–1.00, p = 0.156) is 0.5 h. Moreover, the AUC(0-inf) was determined as 4100 ng·h/mL in data set [4] (both sexes, human, plasma, oral, 100 mg fedratinib + 200 mg fluconazole once daily (test), n = 5, read-out: AUC0–∞, geometric mean from ANOVA model); 2410 ng·h/mL in data set [4] (both sexes, human, plasma, oral, 100 mg, 100 mg fedratinib (reference), n = 7, read-out: AUC0–∞, geometric mean from ANOVA model); 4200 ng·h/mL in data set [4] (both sexes, human, plasma, oral, fedratinib 100 mg + fluconazole 200 mg once daily, n = 5, read-out: AUC0–∞, geometric mean (geometric CV%)); 2360 ng·h/mL in data set [4] (both sexes, human, plasma, po, 100 mg, fedratinib 100 mg single oral dose alone, n = 7, read-out: AUC0–∞, geometric mean (geometric CV%)). The AUC(0-t) in [4] (both sexes, human, plasma, oral, 100 mg fedratinib (reference), n = 16, read-out: AUC0–t, geometric mean from ANOVA model) was determined as 1900 ng·h/mL; in [4] (both sexes, human, plasma, oral, fedratinib 100 mg + fluconazole 200 mg once daily, n = 16, read-out: AUC0–t, geometric mean (geometric CV%)), 2970 ng·h/mL; in data set [4] (both sexes, human, plasma, fedratinib 100 mg single oral dose alone, n = 16, read-out: AUC0–t, geometric mean (geometric CV%)), 1900 ng·h/mL. The Cmax worked out at 121 ng/mL in data set [4] (both sexes, human, plasma, oral, 100 mg fedratinib (reference), n = 16, read-out: Cmax, geometric mean from ANOVA model); 146 ng/mL in data set [4] (both sexes, human, plasma, oral, 100 mg fedratinib + 200 mg fluconazole once daily (test), n = 16, read-out: Cmax, geometric mean from ANOVA model); 146 ng/mL in data set [4] (both sexes, human, plasma, fedratinib 100 mg single oral dose + fluconazole 200 mg once daily, healthy adults, n = 16, read-out: Cmax, geometric mean (geometric CV%)); 121 ng/mL in data set [4] (both sexes, human, plasma, fedratinib 100 mg single oral dose alone, fasted, healthy adults, n = 16, read-out: Cmax, geometric mean (geometric CV%)). Also, the Vd/F in data set [4] (both sexes, human, plasma, oral, fedratinib 100 mg + fluconazole 200 mg once daily, n = 5) is 3560 L; in [4] (both sexes, human, plasma, fedratinib 100 mg single oral dose alone, n = 7) it was 6500 L. Further, the half-life in data set [4] (both sexes, human, plasma, oral, fedratinib 100 mg + fluconazole 200 mg once daily, n = 16) is 138 h; in data set [4] (both sexes, human, plasma, fedratinib 100 mg single oral dose alone, n = 16), 125 h. In addition, the time to peak (Tmax) in data set [4] (both sexes, human, plasma, fedratinib 100 mg single oral dose alone, n = 16, read-out: Tmax, median (min, max)) came out at 2 h. Moreover, the “Increase in fedratinib AUC0–t on coadministration with fluconazole” value in data set [4] (setting [12]) turned out to be 56%. Also, in data set [4] (setting [12]), the “Increase in fedratinib Cmax on coadministration with fluconazole” value came out at 21%. Moreover, the “AUC0–t: ratio (%) of geometric LS means, test/reference (90% CI)” value in data set [4] (setting [13]) was 156% and 156 (145, 168) %. In addition, the “Cmax: ratio (%) of geometric LS means, test/reference (90% CI)” value in data set [4] (setting [13]) is 121% and 121 (108, 135) %. In addition, the “AUC0–∞: ratio (%) of geometric LS means, test/reference (90% CI)” value in [4] (fedratinib 100 mg + fluconazole 200 mg once daily (test, n = 5) vs fedratinib 100 mg (reference, n = 7)) was 170 (143, 202) %. Further, the “CL/F, geometric mean (geometric CV%)” value was 23.8 (40.2) L/h in data set [4] (fedratinib 100 mg + fluconazole 200 mg once daily, n = 5) and 42.3 (21.9) L/h in [4] (fedratinib 100 mg single oral dose alone, n = 7). Besides, the “Tmax, median (min, max)” value in data set [4] (fedratinib 100 mg + fluconazole 200 mg once daily, n = 16) is on record as 2.00 (1.02, 6.00) h. In addition, the “Difference in terminal t1/2 of fedratinib alone vs in combination with fluconazole” value in [4] (in vivo) was “no significant difference”. In addition, in data set [4] (observed in this study), the “Increase in fedratinib exposure by fluconazole (in words)” value is reported as “less than twofold increase”. Also, in data set [4] (single oral dose, compared with fedratinib alone), the “Increase in systemic exposure to fedratinib on coadministration with fluconazole” value is “up to 56%”. Further, the “Participants with treatment-emergent adverse events (TEAEs)” value in [5] (during treatment with fedratinib 100 mg alone, 3 participants) is listed as 10.3%; in [5] (during treatment with fedratinib 100 mg plus fluconazole 200 mg, 1 participant) it was 6.3%. Moreover, the “Tolerability of single oral doses” value in data set [5] (fedratinib 100 mg with or without fluconazole, healthy adults) is reported as “well tolerated”. Further, the “Proportion of patients reaching primary (≥ 35% reduction in spleen volume) and secondary (≥ 50% reduction in symptom score) endpoints vs placebo” value in the data set with myelofibrosis was “greater proportion”. Also, the “Share of total circulating drug in plasma accounted for by fedratinib” value in data set [6] is “approximately 80%”. For the same compound, in data set [7], the “Tolerability of single doses” value was “generally well tolerated”. Further, the “CYP3A4 share of the total CYP contribution to metabolism” value in the data set with CYP3A4 is on record as 0–67%. Further, the “Predicted increase in fedratinib exposure on coadministration of fluconazole (dual CYP2C19 and CYP3A4 inhibitor) vs fedratinib alone” value in [8] was “up to a fourfold increase”.
As to `OC(Cn1cncn1)(Cn1cncn1)c1ccc(F)cc1F` [fluconazole], the “Participants with treatment-emergent adverse events (TEAEs)” value in data set [5] (during treatment with fluconazole 200 mg alone, 2 participants) amounted to 7.4%.
Regarding `Cc1nccn1CC1CCc2c(c3ccccc3n2C)C1=O` (stereo not drawn) [ondansetron], the “Change in AUC on coadministration with the moderate CYP3A inhibitor aprepitant” value in data set [9] is “no clinically significant change”.
For `N#CC[C@H](C1CCCC1)n1cc(-c2ncnc3[nH]ccc23)cn1` [ruxolitinib], in data set [10], the “Increase in exposure on coadministration with fluconazole” value is on record as 234%.
